{"source": "patent US11534506B2", "about": "“Methods for cell labeling and medical imaging” (priority 2015, dated 2022)", "key": {"[1]": {"system": "hematopoietic progenitor cells (HPCs)", "conditions": "in 24-96 hours; cited from earlier work"}, "[2]": {"system": "Leukocytes, Lymphocytes, HPCs", "conditions": "in 30 minutes; cited from earlier work"}, "[3]": {"system": "lymphocytes", "conditions": "cited from earlier work"}, "[4]": {"system": "mMCs, hMSCs and mDCs", "test": "Incorporation of ^89Zr-DBN in protein fraction (subcellular protein fractionation)", "type": "cell-based, mouse, human", "conditions": "days 1, 4 and 7 after labeling; all cell types studied", "procedure": "To understand the sub-cellular localization of the label, incorporation of ^89Zr-DBN into different protein fractions in mMCs, hMSCs and mDCs was evaluated using a subcellular protein fractionation kit (Piercenet Thermo Scientific) at day 1, 4 and 7 post-labeling. The cytosolic proteins, hydrophobic membrane proteins, nuclear proteins and cytoskeletal proteins were isolated and each protein fraction was counted for radioactivity using a 2480 Wizard^2 automatic gamma counter (Perkin Elmer, Waltham, Mass., USA)."}, "[5]": {"system": "mMCs, hMSCs and mDCs", "test": "Efflux of ^89Zr-DBN from labeled cells", "conditions": "over 7 days post-labeling, medium replaced daily", "description": "The medium was replaced with fresh medium daily for 7 days and radioactivity in the replaced medium was counted. For mDCs with mix of adherent and suspension cells, the plate was centrifuged at 1000 rpm for 10 minutes before replacing the medium to avoid loss of unattached ^89Zr-labeled cells."}, "[6]": {"system": "scAAV1-Cre and AAV2-GFP", "test": "Labeling of adeno-associated viruses with ^89Zr-DBN", "conditions": "after 30 minutes of labeling", "procedure": "Post-labeling, the ^89Zr-DBN-AAVs were purified from free label and reaction mixture using size exclusion PD-10 desalting columns. The eluted virus in fractions were quantified using protein assay and radioactivity elution pattern was recorded."}, "[7]": {"system": "human mesenchymal stem cells (hMSCs)", "test": "Labeling of cells with ^89Zr-DBN (cell-bound radioactivity)", "type": "cell-based", "conditions": "6×10^6 cells incubated 30 minutes with ~6 MBq", "procedure": "(§1) B16-F10 Mouse melanoma cells (mMCs) from ATCC, Manassas, Va., USA, human mesenchymal stem cells (hMSCs) from patients and JAWSII mouse dendritic cells (mDCs) from ATCC, Manassas, Va., USA, were used for evaluating the ^89Zr-DBN based labeling method. The mMCs and hMSCs were cultured in complete DMEM (DMEM+10% FBS) and mDCs were cultured in complete alphaMEM (alpha MEM+4 mM L-glutamine+1 mM sodium pyruvate+5 ng/mL murine GM-CSF+20% FBS). The cultures were maintained in a humidified cell culture chamber (21% O2, 74% N2, 5% CO2) at 37° C.\n(§2) The adherent cells were trypsinized and washed once with PBS and twice with HEPES buffered GIBCO Hanks Balanced Salt solution buffered (ThermoFisher, Atlanta, Ga., USA) (H-HBSS), pH 7.5. The cell labeling reaction was performed with ˜6×10^6 cells in 500 μl H-HBSS at pH 7.5. […]. After incubation, the cells were washed 4 times with appropriate volume of complete medium. The final labeling efficiency was calculated from the radioactivity bound to cells after all the washes."}, "[8]": {"system": "JAWSII mouse dendritic cells (mDCs)", "test": "Labeling of cells with ^89Zr-DBN (cell-bound radioactivity)", "type": "cell-based", "conditions": "6×10^6 cells incubated 30 minutes with ~6 MBq", "procedure": "as §1, §2"}, "[9]": {"system": "B16-F10 Mouse melanoma cells (mMCs)", "test": "Labeling of cells with ^89Zr-DBN (cell-bound radioactivity)", "type": "cell-based", "conditions": "6×10^6 cells incubated 30 minutes with ~6 MBq", "procedure": "as §1, §2"}, "[10]": {"system": "mMCs, hMSCs and mDCs", "test": "Labeling of cells with ^89Zr(HPO4)2 and ^89Zr-DBN, labeling efficiency over all cell types", "type": "cell-based, mouse, human", "procedure": "The adherent cells were trypsinized and washed once with PBS and twice with HEPES buffered GIBCO Hanks Balanced Salt solution buffered (ThermoFisher, Atlanta, Ga., USA) (H-HBSS), pH 7.5. The cell labeling reaction was performed with ˜6×10^6 cells in 500 μl H-HBSS at pH 7.5. […] After incubation, the cells were washed 4 times with appropriate volume of complete medium. The final labeling efficiency was calculated from the radioactivity bound to cells after all the washes."}, "[11]": {"system": "C6 glioma cells", "conditions": "cited from earlier work"}, "[12]": {"system": "mMCs, hMSCs and mDCs", "test": "ApoTox-Glo viability/cytotoxicity and caspase 3/7 apoptosis assay", "type": "cell-based, mouse, human", "conditions": "2 μM for 16 hours", "procedure": "The effect of radiolabeling on cellular viability was also assessed using the ApoTox-Glo viability, cytotoxicity and caspase 3/7 apoptosis assay (Promega Corporation, Madison, Wis., USA). Unlabeled cells served as control. A known number of unlabeled and ^89Zr-labeled cells (˜10^4/well) were plated in a 96-well culture plate. The culture medium was replaced daily and maintained at 37° C. in a CO2 incubator. At day 7, cell viability, cytotoxicity and apoptosis was quantified in triplicate using the ApoTox-Glo assay. As positive controls, cells were incubated with 30 μg/mL digitonin for 30 minutes for the viability and cytotoxicity assays, while 2 μM staurosporine was added for 16 hours for the caspase 3/7 dependent apoptosis assay."}, "[13]": {"system": "myeloma cells and natural killer cells", "conditions": "cited from earlier work"}, "[14]": {"system": "natural killer cells", "conditions": "cited from earlier work"}, "[15]": {"system": "macrophages, breast cancer cells, and myeloma cells", "conditions": "at 24 hours; cited from earlier work"}, "[16]": {"system": "5T33 myeloma cells", "conditions": "cited from earlier work"}}, "note": "Entries after “also recorded” stand apart in the source; their conditions may differ. Read-outs that look alike come from different tables or passages of the source."}
{"compound": "[In+3].[O-]c1cccc2cccnc12.[O-]c1cccc2cccnc12.[O-]c1cccc2cccnc12", "note": "[^111In-oxine]", "values": [{"measurement": "extent of efflux (as high as)", "setting": "[1]", "result": "70-80%"}, {"measurement": "cell labeling yield", "setting": "[2]", "result": "~80% cell labeling yield in 30"}, {"measurement": "extent of efflux (as high as)", "setting": "[3]; in 24-96 hours", "result": "70-80%"}, {"measurement": "effluxed radioactivity", "setting": "[3]; in 24 hours", "result": "(~70% effluxed in 24 hours)"}]}
{"compound": "^89Zr-labeled p-isothiocyanato-benzyl-desferrioxamine [^89Zr-DBN]", "values": [{"measurement": "^89Zr-radioactivity incorporated in hydrophobic membrane protein fraction", "setting": "[4]", "result": "~99", "unit": "%"}, {"measurement": "efflux of ^89Zr-radioactivity from labeled cells", "setting": "[5]", "result": "negligible efflux; also recorded: no efflux of radiolabel was observed"}, {"measurement": "viral labeling yield (radioactivity concentration)", "setting": "[6]", "result": "~20", "unit": "mCi/10^14 viral particles"}, {"measurement": "Radioactivity concentration of labeled cells", "setting": "[7]", "result": "0.47±0.10", "unit": "MBq/10^6 cells"}, {"measurement": "Radioactivity concentration of labeled cells", "setting": "[8]", "result": "0.39±0.20", "unit": "MBq/10^6 cells"}, {"measurement": "Radioactivity concentration of labeled cells", "setting": "[9]", "result": "0.50±0.10", "unit": "MBq/10^6 cells"}, {"measurement": "Radioactivity concentrations of labeled cells achieved without a negative effect on cellular viability", "setting": "[10]", "result": "up to 0.5 MBq/1×10^6 cells"}, {"measurement": "cell labeling efficiency", "setting": "[10]; 30 minutes labeling at 37° C., ~6×10^6 cells, ~6 MBq, cell-bound radioactivity after washes, depending on cell type", "result": "30-50%"}]}
{"compound": "CNC(=S)NN=CC(C)=NNC(=S)NC.[64Cu]", "note": "[^64Cu-PTSM, ^64Cu-pyruvaldehyde-bis(N4-methylthiosemicarbazone)]", "values": [{"measurement": "extent of efflux (as high as)", "setting": "[11]; C6 glioma cells, in 24-96 hours", "result": "70-80%"}, {"measurement": "cell labeling yield", "setting": "[11]; in 5 hours", "result": "70-85% cell labeling yield in"}, {"measurement": "effluxed radioactivity", "setting": "[11]; in 24 hours", "result": "cells (~80% effluxed in 24"}]}
{"compound": "CN[C@@H]1C[C@H]2O[C@@](C)([C@@H]1OC)n1c3ccccc3c3c4c(c5c6ccccc6n2c5c31)C(=O)NC4", "note": "[staurosporine]", "values": [{"measurement": "apoptosis (caspase 3/7), positive control", "setting": "[12]", "result": "apoptosis was increased"}]}
{"compound": "c1cnc2c([O][89Zr]([O]c3cccc4cccnc34)([O]c3cccc4cccnc34)[O]c3cccc4cccnc34)cccc2c1", "note": "[^89Zr-oxine]", "values": [{"measurement": "cell labeling yield", "setting": "[13]; in 30 minutes", "result": "~32% cell labeling yield in 30"}, {"measurement": "cell viability after labeling", "setting": "[13]; possibly due to oxine exposure", "result": "Loss of cell viability possibly"}, {"measurement": "viability of radiolabeled cells", "setting": "[14]; after 6 days", "result": "20-30%"}, {"measurement": "viability of radiolabeled cells", "setting": "[14]; over the first 24 hours", "result": "60-100%"}, {"measurement": "efflux", "setting": "[15]", "result": "10-29%"}, {"measurement": "viability of labeled cells", "setting": "[16]; in first 24 hours", "result": "76.3±3.2", "unit": "%"}, {"measurement": "viability of labeled cells, initial", "setting": "[16]; starting value before the decline", "result": 93, "unit": "%"}]}
